The source of these data is the NIST ThermoML archive (doi:10.1016/j.jct.2014.09.009).

For data set [1] the following is noted: 298.15 K; 101.33 kPa; Liquid; Vibrating tube method.
A short description of data set [2]: refractive index (Na D-line) (dimensionless). As to conditions: 298.15 K; 101.33 kPa; Liquid; Standard Abbe refractometry.

± gives the expanded uncertainty stated by the source.

As usually defined, the mass density is mass per unit of volume. Broadly, the refractive index is a measure of how strongly the sample bends light. `CC(C)O` [propan-2-ol]: the mass density in data set [1] was 780.9 ± 2.1 kg/m3. For the same molecule, the refractive index in data set [2] is on record as 1.37499 ± 0.00035.

`CCn1cc[n+](C)c1.COS(=O)(=O)[O-]` [1-ethyl-3-methylimidazolium methylsulfate]: the mass density in data set [1] stood at 1277.4 ± 2.6 kg/m3. In addition, in data set [2], the refractive index amounted to 1.479 ± 0.0005.

Take `CCO` [ethanol]: in data set [1], the mass density amounted to 785.1 ± 2.1 kg/m3. The refractive index in data set [2] came to 1.35932 ± 0.00035.

Take `CCOC(C)=O` [ethyl acetate]: the mass density in data set [1] is listed as 894.5 ± 2.1 kg/m3. In data set [2], the refractive index came to 1.36975 ± 0.00035.

`COS(=O)(=O)[O-].Cn1cc[n+](C)c1` [1,3-dimethylimidazolium methylsulfate]: the mass density in data set [1] is recorded as 1327.3 ± 3.8 kg/m3. In addition, in data set [2], the refractive index is on record as 1.48276 ± 0.00069.

Take `CCCCn1cc[n+](C)c1.COS(=O)(=O)[O-]` [1-butyl-3-methylimidazolium methyl sulfate]: the mass density in data set [1] was found to be 1212.3 ± 2.5 kg/m3. In addition, in data set [2], the refractive index amounted to 1.47948 ± 0.00053.

As to `CCCCCCCCCCCC` [dodecane], the mass density in data set [1] is on record as 745.2 ± 2.1 kg/m3. Also, the refractive index in data set [2] is listed as 1.41992 ± 0.0004.
